Patent publication US20240002391A1, “4-ALKOXYPYRROLO[2,1-F][1,2,4]TRIAZINES AND PREPARATION AND USES THEREOF” (BioSplice Therapeutics, Inc., priority 2022, published 2024)

How the values were obtained:
[1] = molecular target: recombinant DYRK1A kinase (Homo sapiens (Human), UniProt Q13627); assay: DYRK1A kinase assay (Ser/Thr 18 peptide Z-lyte FRET); format: biochemical; details: DYRK1A kinase activity, Z-lyte Ser/Thr 18 peptide, 15 μM ATP; method text calls the value IC50; read-out: EC50 (the source's name)
Procedure, shortened: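 Kinase 0.25 μg/mL + ATP 15 μM + Ser/Thr 18 peptide 4 μM, 1 h RT with cpd (10 μM top, 1:3, 11 pts, n=2). Dev. reagent A 1 h RT. Ex 400, Em 455/520 ratio → % phos. → IC50, nonlinear fit.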

[2] = system: Tau phosphorylation at Thr212 (pThr212) in HEK293T cells transfected with DYRK1A and MAPT; assay: Tau phosphorylation phosphoTau (Thr212) AlphaLISA assay in HEK293T cells transfected with DYRK1A and MAPT; format: cell-based; details: HEK-293T, HEK293T cells transiently transfected with human DYRK1A and MAPT, compound treatment 18-24 hours, read-out: pTau (Thr212) EC50
Protocol: Representative compounds were screened using the assay procedure for tau phosphorylation activity described below.
HEK293T cells (ATCC, CRL3216) cultured in DMEM (Thermo Fisher Scientific, 10566024) supplemented with 10% FBS (Coming, 35-011—CV) and Penicillin/Streptomycin (Thermo Fisher Scientific, 15140163) were seeded in a 75 cm^2 flask at 8.1×10^6 cells/flask. The HEK293T cells were then transiently transfected with 5 μg DYRK1A (NM_001396) human untagged clone (OriGene, SC314641) and 2.5 μg MAPT (441 a.a. Tau gene) (NM_005910) human untagged clone (OriGene, TP313312) using Lipofectamine 3000 (Thermo Fisher Scientific, L30000015) and incubated for 20-30 hours in a humidified incubator at 37° C. and 5% CO^2. Post-incubation, HEK293T cells transfected with the DYRK1A and MAPT expression vectors were harvested and seeded in BioCoat poly-D lysine coated 96-well plates (Coming, 354461) at 3×10^4 cells/well.
The above synthesized compounds were screened using the cell assay procedure to assess decreased Tau phosphorylation at Thr212 (pThr212) described below.
Each compound was dissolved in DMSO (Sigma-Aldrich, D8418-100 mL) as a 10 mM stock. 10 mM stocks were serially diluted 1:3, 10-point dose-response curve and added to the cells with a final concentration ranging from 20 μM to 1.1 nM. Cells were treated with compounds in duplicate and incubated for 18-24 hours in a humidified incubator at 37° C. and 5% CO^2.
Following the overnight compound treatment, cells were lysed with 1X Alpha Surefire Ultra Lysis Buffer (Perkin Elmer, ALSU-LB-100ML) complemented with 1X Halt Phosphatase Inhibitor Cocktail (Thermo Fisher Scientific, 78427) and 1X Halt Protease Inhibitor Cocktail (Thermo Fisher Scientific, 78438). Lysates were spun down at 12,000 g for 10 min to remove any cellular debris and 5 μL of lysates were dispensed into a 384-well Opti-Plate (Perkin Elmer, 6007290) for the measurement of Tau phosphorylation in the phosphoTau (Thr212) AlphaLISA assay. Donor antibody, biotinylated HT7Tau (Thermo Fisher Scientific, MN1000B), and acceptor antibody, pThr212Tau (Thermo Fisher Scientific, 44740G) were both added to the cell lysates at a final concentration of 3 nM and incubated for 1 hour at room temperature. Following incubation of the lysates with the donor and acceptor antibodies, anti-rabbit IgG(Fc specific) AlphaLISA acceptor beads (Perkin Elmer, AL104C) were added at a 10 ug/mL final concentration and incubated for 1 hour at room temperature protected from light. Lastly, AlphaScreen streptavidin donor beads (PerkinElmer, 6760002) were added at 40 ug/mL final concentration and incubated for 1 hour at room temperature protected from light. Plates were read at […] on the EnVision Multilabel Plate Reader (Perkin Elmer). The phospho-Tau (Thr212) AlphaLISA signal was used to plot, draw the curve fitting, and determine each compound's EC50 in Prism (GraphPad).

Compound | IC50 [1] | EC50 [2]
COc1nc(N[C@H]2CC[C@](C)(O)CC2)nn2ccc(-c3cnc4nccn4c3)c12 [Compound 257, trans-4-((5-(Imidazo[1,2-a]pyrimidin-6-yl)-4-methoxypyrrolo[2,1-f][1,2,4]triazin-2-yl)amino)-1-methylcyclohexan-1-ol] | 0.4 nM | 15.1 nM
CC[C@]1(O)CC[C@H](Nc2nc(OC)c3c(-c4cnc5nccn5c4)ccn3n2)CC1 [Compound 258, trans-1-Ethyl-4-((5-(imidazo[1,2-a]pyrimidin-6-yl)-4-methoxypyrrolo[2,1-f][1,2,4]triazin-2-yl)amino)cyclohexan-1-ol] | 0.8 nM | 8.9 nM
COc1nc(N[C@H]2CC[C@](C)(O)CC2)nn2ccc(-c3ccc4nccn4c3)c12 [Compound 56, trans-4-((5-(Imidazo[1,2-a]pyridin-6-yl)-4-methoxypyrrolo[2,1-f][1,2,4]triazin-2-yl)amino)-1-methylcyclohexan-1-ol] | 1.3 nM | 35.7 nM
COc1nc(N[C@H]2C[C@](C)(O)C2)nn2ccc(-c3ccc4nccn4c3)c12 [Compound 44, trans-3-((5-(Imidazo[1,2-a]pyridin-6-yl)-4-methoxypyrrolo[2,1-f][1,2,4]triazin-2-yl)amino)-1-methylcyclobutan-1-ol] | – | 48.2 nM
COc1nc(NC2CCC3(CC2)COC3)nn2ccc(-c3ccc4nnn(C)c4c3)c12 [Compound 230, 4-Methoxy-5-(1-methyl-1H-benzo[d][1,2,3]triazol-6-yl)-N-(2-oxaspiro[3.5]nonan-7-yl)pyrrolo[2,1-f][1,2,4]triazin-2-amine] | 4.2 nM | –
COc1nc(NC2CCN(CCF)CC2)nn2ccc(-c3ccn4nccc4c3)c12 [Compound 24, N-(1-(2-Fluoroethyl)piperidin-4-yl)-4-methoxy-5-(pyrazolo[1,5-a]pyridin-5-yl)pyrrolo[2,1-f][1,2,4]triazin-2-amine] | 14.3 nM | –
COc1nc(N[C@@H]2CN(C(C)=O)C[C@@H]2F)nn2ccc(-c3cnc4nccn4c3)c12 [Compound 264, 1-((3S,4R)-3-Fluoro-4-((5-(imidazo[1,2-a]pyrimidin-6-yl)-4-methoxypyrrolo[2,1-f][1,2,4]triazin-2-yl)amino)pyrrolidin-1-yl)ethan-1-one] | 3.5 nM | –
COc1nc(N[C@H]2C[C@](C)(C(=O)NC3(C)COC3)C2)nn2ccc(-c3ccc4ncccc4c3)c12 [Compound 1042, trans-3-((4-Methoxy-5-(quinolin-6-yl)pyrrolo[2,1-f][1,2,4]triazin-2-yl)amino)-1-methyl-N-(3-methyloxetan-3-yl)cyclobutane-1-carboxamide] | 1.2 nM | –
COc1nc(N[C@@H]2CCN(C(=O)C3(C#N)CC3)CC2(F)F)nn2ccc(-c3ccc4nnn(CC(F)F)c4c3)c12 [Compound 791, (R)-1-(4-((5-(1-(2,2-Difluoroethyl)-1H-benzo[d][1,2,3]triazol-6-yl)-4-methoxypyrrolo[2,1-f][1,2,4]triazin-2-yl)amino)-3,3-difluoropiperidine-1-carbonyl)cyclopropane-1-carbonitrile] | 2.2 nM | –
COc1nc(N[C@H]2CCN(C(C)=O)C[C@H]2F)nn2cc(F)c(-c3ccc4nnn(CC(F)F)c4c3)c12 [Compound 856, 1-((3R,4S)-4-((5-(1-(2,2-Difluoroethyl)-1H-benzo[d][1,2,3]triazol-6-yl)-6-fluoro-4-methoxypyrrolo[2,1-f][1,2,4]triazin-2-yl)amino)-3-fluoropiperidin-1-yl)ethan-1-one] | 1.9 nM | –
CCO[C@H]1C[C@@H](Nc2nc(OC)c3c(-c4ccc5nnn(C)c5c4)ccn3n2)C1 [Compound 624, N-(cis-3-Ethoxycyclobutyl)-4-methoxy-5-(1-methyl-1H-benzo[d][1,2,3]triazol-6-yl)pyrrolo[2,1-f][1,2,4]triazin-2-amine] | 8.6 nM | –
COc1nc(NC2CCC3(CC2)CN(C(C)=O)C3)nn2ccc(-c3cnc4nccn4c3)c12 [Compound 273, 1-(7-((5-(Imidazo[1,2-a]pyrimidin-6-yl)-4-methoxypyrrolo[2,1-f][1,2,4]triazin-2-yl)amino)-2-azaspiro[3.5]nonan-2-yl)ethan-1-one] | 1.8 nM | –
COc1nc(N[C@H]2CC[C@](C)(O)CC2)nn2ccc(-c3ccc4ncc(C#N)n4c3)c12 [Compound 103, 6-(2-((trans-4-hydroxy-4-methylcyclohexyl)amino)-4-methoxypyrrolo[2,1-f][1,2,4]triazin-5-yl)imidazo[1,2-a]pyridine-3-carbonitrile] | 5.9 nM | –
COc1nc(N[C@@H]2CCCOC2)nn2ccc(-c3cnc4nccn4c3)c12 [Compound 975, (R)-5-(Imidazo[1,2-a]pyrimidin-6-yl)-4-methoxy-N-(tetrahydro-2H-pyran-3-yl)pyrrolo[2,1-f][1,2,4]triazin-2-amine] | 7.6 nM | –

More lines, main results first:

IC50 [1] | Compound | EC50 [2]
4.7 nM | COc1nc(N[C@H]2CCN(C)C[C@H]2F)nn2ccc(-c3ccc4ncccc4c3)c12 [Compound 310, N-((3R,4S)-3-Fluoro-1-methylpiperidin-4-yl)-4-methoxy-5-(quinolin-6-yl)pyrrolo[2,1-f][1,2,4]triazin-2-amine] | 109 nM
22.4 nM | COc1nc(N[C@H]2CC[C@@](C)(O)CC2)nn2ccc(-c3cnc4nc(C)n(CC(F)F)c4c3)c12 [Compound 1, cis-4-((5-(1-(2,2-Difluoroethyl)-2-methyl-1H-imidazo[4,5-b]pyridin-6-yl)-4-methoxypyrrolo[2,1-f][1,2,4]triazin-2-yl)amino)-1-methylcyclohexan-1-ol] | 21.6 nM
62.6 nM | COc1nc(NC2CC3(C2)CN(C(=O)OC(C)(C)C)C3)nn2ccc(-c3ccn4nccc4c3)c12 [Compound 92, tert-Butyl 6-((4-methoxy-5-(pyrazolo[1,5-a]pyridin-5-yl)pyrrolo[2,1-f][1,2,4]triazin-2-yl)amino)-2-azaspiro[3.3]heptane-2-carboxylate] | –
40.9 nM | COc1nc(NC23CCC(O)(CC2)C3)nn2ccc(-c3ccc4ncnn4c3)c12 [Compound 582, 4-((5-([1,2,4]Triazolo[1,5-a]pyridin-6-yl)-4-methoxypyrrolo[2,1-f][1,2,4]triazin-2-yl)amino)bicyclo[2.2.1]heptan-1-ol] | –
1.6 nM | COc1nc(N[C@@H]2CCN(C(C)=O)CC2(F)F)nn2ccc(-c3cc(F)c4nc(C)n(CC(F)F)c4c3)c12 [Compound 526, (R)-1-(4-((5-(1-(2,2-Difluoroethyl)-4-fluoro-2-methyl-1H-benzo[d]imidazol-6-yl)-4-methoxypyrrolo[2,1-f][1,2,4]triazin-2-yl)amino)-3,3-difluoropiperidin-1-yl)ethan-1-one] | –
34.4 nM | C[C@]1(O)CC[C@H](Nc2nc(O)c3c(-c4ccc5nccnc5c4)ccn3n2)CC1 [Compound 346, 2-((trans-4-Hydroxy-4-methylcyclohexyl)amino)-5-(quinoxalin-6-yl)pyrrolo[2,1-f][11,2,4]triazin-4-ol] | –
5.7 nM | COc1nc(N[C@H]2C[C@@](C)(O)C2)nn2ccc(-c3ccc4nnn(C)c4c3)c12 [Compound 199, cis-3-((4-Methoxy-5-(1-methyl-1H-benzo[d][1,2,3]triazol-6-yl)pyrrolo[2,1-f][1,2,4]triazin-2-yl)amino)-1-methylcyclobutan-1-ol] | –
0.4 nM | COc1nc(N[C@H]2CCN(C3(C)COC3)C[C@H]2F)nn2ccc(-c3ccc4nnn(CC(F)F)c4c3)c12 [Compound 764, 5-(1-(2,2-difluoroethyl)-1H-benzo[d][1,2,3]triazol-6-yl)-N-((3R,4S)-3-fluoro-1-(3-methyloxetan-3-yl)piperidin-4-yl)-4-methoxypyrrolo[2,1-f][1,2,4]triazin-2-amine] | –
